Literature values as cited in patent US20060093676A1, “Ascorbic acid stability” (priority 2002, published 2006).

Details: in water

In the case of `O=C1O[C@H]([C@@H](O)CO)C(O)=C1O` [L-Ascorbic acid], the “pK of acid-ionizable hydrogen” value is given as 4.2.
